Test results: patent publication US20210317071A1, “PH-RESPONSIVE LIPIDS” (University of KwaZulu-Natal, priority 2016, published 2021)
Values after ≈ are worked out from the molar mass of the structure shown. Where two headings read alike, the source gives them in different places.

Assays:
[1] = system: shaved rat skin; format: in vitro ADME, Wistar rats
Text: All the experiments performed using animals were approved by Animal Research Ethics committee of the University of KwaZulu-Natal. In vivo study, the protocol was approved by Animal Research Ethics committee of the University of KwaZulu-Natal. The protocol approval numbers for in vivo skin infection model and transdermal permeation studies were AREC/104/015PD and AREC/054/14/Animal respectively. BALB/c mice and Wistar rats were used for in vivo skin infection model and transdermal permeation study respectively. Animals used in the study were procured from Biomedical Resource Unit of University of KwaZulu-Natal, Westville, Durban, South Africa.
All the intermediate, ester derivatives (MSAPE, MOAPE, MLAPE, MLLAPE, DSAPE, DOAPE, DLAPE, DLLAPE, TSAPE, TOAPE, TLAPE and TLLAPE) were evaluated as potential CPEs for transdermal drug delivery using tenofovir (TNF) as a model drug. The experiments were performed on shaved rat skin using Franz diffusion cells. TNF gels were prepared using hydroxypropyl methyl cellulose, milli-Q water and 1% w/w of compounds of formula 1. The permeability of TNF in the absence of enhancers was performed as a control. […] TNF was able to permeate the skin without any permeation enhancer with a steady state flux value 040.91±04.93 μg cm^−2 h^−1 (Table 6).

[2] = system: Methicillin-resistant Staphylococcus aureus (MRSA); assay: In-vitro antibacterial activity, MIC by broth dilution; format: cell-based
Protocol: (§1) The minimum inhibitory concentration (MIC) values for VCM loaded liposomes were determined against Staphylococcus aureus (SA) and Methicillin-resistant Staphylococcus aureus (MRSA) using broth dilution method (Materials Science and Engineering: C, Volume 61, 2016, Pages 616-630). The stock bacterial cultures were grown in Mueller-Hinton Broth (MHB) 24 h before the test at 37° C.
(§2) Bacterial suspensions were prepared equal to 1.5×10^8 CFU ml^−1 as half mcFarland. Serial dilutions of VCM loaded liposomal formulations were prepared in MHB broth then added to the bacterial culture, mixed properly and incubated at 37° C. for 24 hours. […] The study continued for four days to determine the sustained release activity of encapsulated VCM. Experiments were performed in triplicate and drug-free liposomes, bare VCM solution and VCM loaded liposomes without Ph-responsive lipid were used as controls.

[3] = system: Staphylococcus aureus (SA); assay: as above; format: cell-based; conditions: S. aureus
Protocol: as §1, §2

[4] = In-vitro VCM release from liposomes as a function of pH; format: physicochemical
Protocol: In-vitro drug release of VCM from the pH-responsive liposomes of the invention is illustrated in FIG. 6. At all-time intervals, VCM release at acidic pH (6.5) was higher than at physiological pH of 7.4. […] For further confirmation, the mean dissolution time (MDT 90%) for 90% of drug release was calculated from in-vitro release data. […] The MDT value is inversely proportional to the release rate, i.e. lower the MDT higher the release rate and vice versa. […] The higher drug release rate at the acidic environment from liposomes can be attributed to the alteration in the lipid bilayer orientation and permeability caused by conformational changes at the head group and hydrophobic tails of the PH-responsive lipid at low pH.

[5] = both pH values, study over four days
[6] = pH 6.5, DAY - I (24 h), listed as bare VCM
[7] = pH 7.4, DAY - I (24 h), listed as bare VCM

| Structure (SMILES) | Cumulative amount of TNF permeated ([1]; Wistar, rat, 6 h, 1 % w/w) [μg cm^−2] | ER (enhancement ratio) ([1]; Wistar, rat, 6 h, 1 % w/w) | Permeability (P × 10^−2) of TNF ([1]; Wistar, rat, 6 h, 1 % w/w) | also measured |
| --- | --- | --- | --- | --- |
| CCCCCCCC/C=C/CCCCCCCC(=O)OCC(COC(=O)CCCCCCC/C=C/CCCCCCCC)(COC(=O)CCCCCCC/C=C/CCCCCCCC)NCCC(=O)OC(C)(C)C [TOAPE, 2-((3-(tert-butoxy)-3-oxopropyl)amino)-2-((((Z)-octadec-9-enoyl)oxy)methyl)propane-1,3-diyl(9Z,9′Z)-bis(octadec-9-enoate)] | 342.3 ± 26.94 | 1.50 | 0.306 ± 0.02 |  |
| CCCCC/C=C\C/C=C\CCCCCCCC(=O)OCCNCCC(=O)OC(C)(C)C [MLAPE, 2-((3-(tert-butoxy)-3-oxopropyl)amino)ethyl (9Z,12Z)-octadeca-9,12-dienoate] | 574.97 ± 74.09 | 2.25 | 0.460 ± 0.06 |  |
| CN[C@H](CC(C)C)C(=O)N[C@H]1C(=O)N[C@@H](CC(N)=O)C(=O)N[C@H]2C(=O)N[C@H]3C(=O)N[C@H](C(=O)N[C@H](C(=O)O)c4cc(O)cc(O)c4-c4cc3ccc4O)[C@H](O)c3ccc(c(Cl)c3)Oc3cc2cc(c3O[C@@H]2O[C@H](CO)[C@@H](O)[C@H](O)[C@H]2O[C@H]2C[C@](C)(N)[C@H](O)[C@H](C)O2)Oc2ccc(cc2Cl)[C@H]1O [Bare VCM, Vancomycin] |  |  |  | time up to which antibacterial activity was exhibited [2, 5]: ≤ 24 h; MIC ([2]; pH 6.5, DAY - I (24 h)): 15.62 µg/mL (≈ 10.8 µM); MIC [2, 6]: 0.98 µg/mL (≈ 0.676 µM); MIC ([2]; pH 7.4, DAY - I (24 h)): 7.81 µg/mL (≈ 5.39 µM); MIC [2, 7]: 0.98 µg/mL (≈ 0.676 µM); time up to which antibacterial activity was exhibited [3, 5]: ≤ 24 h; MIC ([3]; pH 6.5, DAY - I (24 h)): 7.81 µg/mL (≈ 5.39 µM); MIC [3, 6]: 1.95 µg/mL (≈ 1.35 µM); MIC ([3]; pH 7.4, DAY - I (24 h)): 3.91 µg/mL (≈ 2.7 µM); MIC [3, 7]: 8.79 µg/mL (≈ 6.07 µM); MDT90% Mean dissolution time calculated for 90% of VCM release ([4]; pH 5.5): 6.064 h; MDT90% Mean dissolution time calculated for 90% of VCM release ([4]; pH 6.5): 4.173 h; MDT90% Mean dissolution time calculated for 90% of VCM release ([4]; pH 7.4): 2.690 h |
| CC/C=C\C/C=C\C/C=C\CCCCCCCC(=O)OCCNCCC(=O)OC(C)(C)C [MLLAPE, 2-((3-(tert-butoxy)-3-oxopropyl)amino)ethyl (9Z,12Z,15Z)-octadeca-9,12,15-trienoate] | 945.88 ± 44.93 | 3.70 | 0.758 ± 0.04 |  |
| CCCCCCCCCCCCCCCCCC(=O)OCC(COC(=O)CCCCCCCCCCCCCCCCC)(COC(=O)CCCCCCCCCCCCCCCCC)NCCC(=O)OC(C)(C)C [TSAPE, 2-((3-(tert-butoxy)-3-oxopropyl)amino)-2-((stearoyloxy)methyl) propane-1,3-diyl distearate] | 531.70 ± 23.87 | 2.09 | 0.428 ± 0.02 |  |
| CCCCCCCC/C=C\CCCCCCCC(=O)OCCNCCC(=O)OC(C)(C)C [MOAPE, 2-((3-(tert-butoxy)-3-oxopropyl)amino)ethyl oleate] | 1594.06 ± 198.92 | 5.58 | 1.142 ± 0.16 |  |
| CCCCCCCC/C=C\CCCCCCCC(=O)OCC(COC(=O)CCCCCCC/C=C\CCCCCCCC)NCCC(=O)OC(C)(C)C [DOAPE, 2-((3-(tert-butoxy)-3-oxopropyl)amino)propane-1,3-diyl dioleate] | 424.95 ± 59.84 | 1.71 | 0.350 ± 0.05 |  |
| CCCCCCCCCCCCCCCCCC(=O)OCC(COC(=O)CCCCCCCCCCCCCCCCC)NCCC(=O)OC(C)(C)C [DSAPE, 2-((3-(tert-butoxy)-3-oxopropyl)amino)propane-1,3-diyl distearate] | 336.1 ± 25.67 | 1.40 | 0.286 ± 0.02 |  |
| CCCCC/C=C\C/C=C\CCCCCCCC(=O)OCC(COC(=O)CCCCCCC/C=C\C/C=C\CCCCC)NCCC(=O)OC(C)(C)C [DLAPE, 2-((3-(tert-butoxy)-3-oxopropyl)amino)propane-1,3-diyl (9Z,9′Z,12Z,12′Z)-bis(octadeca-9,12-dienoate)] | 1074.62 ± 61.12 | 3.95 | 0.809 ± 0.05 |  |
| CC/C=C\C/C=C\C/C=C\CCCCCCCC(=O)OCC(COC(=O)CCCCCCC/C=C\C/C=C\C/C=C\CC)NCCC(=O)OC(C)(C)C [DLLAPE, 2-((3-(tert-butoxy)-3-oxopropyl)amino)propane-1,3-diyl (9Z,9′Z,12Z,12′Z,15Z,15′Z)-bis(octadeca-9,12,15-trienoate)] | 400.37 ± 18.92 | 1.65 | 0.337 ± 0.01 |  |
| C[C@H](Cn1cnc2c(N)ncnc21)OCP(=O)(O)O [TNF, tenofovir, reference compound] |  |  |  | Cumulative amount of TNF permeated [1]: 253.10±23.84 μg cm^−2 |
| CCCCCCCCCCCCCCCCCC(=O)OCCNCCC(=O)OC(C)(C)C [MSAPE, 2-((3-(tert-butoxy)-3-oxopropyl)amino)ethyl stearate] | 407.12 ± 66.51 | 1.55 | 0.317 ± 0.06 |  |
